Test results from paper PMC3938481, “Molecular Cloning of a Novel Glucuronokinase/Putative Pyrophosphorylase from Zebrafish Acting in an UDP-Glucuronic Acid Salvage Pathway” (PLoS ONE, 2014).

How the values were obtained:
Experiment in all cases: coupled HPLC assay with pea UDP-sugar pyrophosphorylase
DrGKUP = target: T1, DrGKUP (Danio rerio, UniProt F6NZ60); type: biochemical; details: UTP, 4 mM MgCl2, 50 mM MOPS-KOH pH 7.5, 35°C
T1 construct: gene gkup; full length, 619 residues, about 70 kDa; StrepII-tag, made in Nicotiana benthamiana leaves
T1 sequence (F6NZ60 1-619): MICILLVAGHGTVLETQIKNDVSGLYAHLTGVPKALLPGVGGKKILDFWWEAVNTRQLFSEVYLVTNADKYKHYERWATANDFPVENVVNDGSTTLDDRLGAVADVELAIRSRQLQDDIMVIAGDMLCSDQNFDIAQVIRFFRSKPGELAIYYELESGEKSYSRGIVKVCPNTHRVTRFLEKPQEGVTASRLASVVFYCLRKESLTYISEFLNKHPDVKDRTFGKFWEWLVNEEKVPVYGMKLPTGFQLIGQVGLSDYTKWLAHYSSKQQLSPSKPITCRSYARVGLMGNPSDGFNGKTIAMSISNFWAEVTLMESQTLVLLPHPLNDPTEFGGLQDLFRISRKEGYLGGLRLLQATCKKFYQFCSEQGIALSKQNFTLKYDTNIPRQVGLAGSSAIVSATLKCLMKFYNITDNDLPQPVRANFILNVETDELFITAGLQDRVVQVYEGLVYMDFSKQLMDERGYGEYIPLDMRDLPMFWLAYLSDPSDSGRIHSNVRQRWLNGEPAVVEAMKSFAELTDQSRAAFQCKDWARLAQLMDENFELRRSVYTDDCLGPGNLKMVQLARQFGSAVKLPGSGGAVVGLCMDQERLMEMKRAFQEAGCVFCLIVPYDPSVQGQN

XtGKUP = target: T2, XtGKUP (Xenopus tropicalis, UniProt A0A6I8PZF0); type: biochemical; details: ATP, UTP, 4 mM MgCl2, 50 mM MOPS-KOH pH 7.5, 35°C
T2 construct: gene XB5896631; bifunctional enzyme cloned from tadpole first-strand cDNA; StrepII-tag, made in Nicotiana benthamiana leaves
T2 sequence (A0A6I8PZF0 1-619): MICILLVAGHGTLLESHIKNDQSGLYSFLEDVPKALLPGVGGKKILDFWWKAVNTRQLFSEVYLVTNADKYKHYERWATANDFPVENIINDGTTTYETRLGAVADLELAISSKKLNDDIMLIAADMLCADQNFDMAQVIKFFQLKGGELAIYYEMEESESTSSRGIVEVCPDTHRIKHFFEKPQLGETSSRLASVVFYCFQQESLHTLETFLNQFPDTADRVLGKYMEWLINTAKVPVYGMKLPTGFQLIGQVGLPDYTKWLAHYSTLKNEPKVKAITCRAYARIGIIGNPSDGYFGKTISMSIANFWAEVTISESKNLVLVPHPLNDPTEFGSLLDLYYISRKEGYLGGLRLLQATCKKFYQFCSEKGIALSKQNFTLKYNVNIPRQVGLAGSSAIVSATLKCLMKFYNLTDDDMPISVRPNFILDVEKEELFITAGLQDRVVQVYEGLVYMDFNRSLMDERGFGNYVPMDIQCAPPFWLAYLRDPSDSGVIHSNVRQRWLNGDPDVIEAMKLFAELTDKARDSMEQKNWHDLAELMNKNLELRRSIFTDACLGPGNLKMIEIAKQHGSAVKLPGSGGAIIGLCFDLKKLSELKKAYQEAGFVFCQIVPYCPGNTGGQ

[1] = substrate: Nc1ncnc2c1ncn2[C@@H]1O[C@H](COP(=O)(O)OP(=O)(O)OP(=O)(O)O)[C@@H](O)[C@H]1O; type: biochemical, Danio rerio; details: GlcA and UTP, 4 mM MgCl2, 50 mM MOPS-KOH pH 7.5, 35°C, ATP 0.01-1.4 mM
Excerpt: coupled HPLC assay with pea UDP-sugar pyrophosphorylase on DrGK

Nc1ncnc2c1ncn2[C@@H]1O[C@H](COP(=O)(O)OP(=O)(O)OP(=O)(O)O)[C@@H](O)[C@H]1O [ATP]
coupled HPLC assay with pea UDP-sugar pyrophosphorylase (DrGKUP; GlcA): The product is dependent on the presence of ATP, UTP and GlcA

O=C(O)[C@H]1OC(O)[C@H](O)[C@@H](O)[C@@H]1O (stereo partly drawn) [D-glucuronic acid]
coupled HPLC assay with pea UDP-sugar pyrophosphorylase (XtGKUP): we can confirm the glucuronokinase activity for the Xenopus enzyme
coupled HPLC assay with pea UDP-sugar pyrophosphorylase (DrGKUP; ATP): The recombinant full length DrGKUP as well as the DrGK alone catalyzes the phosphorylation of GlcA

B1: DrGK (Danio rerio) (protein)
chain: AHYSSKQQLSPSKPITCRSYARVGLMGNPSDGFNGKTIAMSISNFWAEVTLMESQTLVLLPHPLNDPTEFGGLQDLFRISRKEGYLGGLRLLQATCKKFYQFCSEQGIALSKQNFTLKYDTNIPRQVGLAGSSAIVSATLKCLMKFYNITDNDLPQPVRANFILNVETDELFITAGLQDRVVQVYEGLVYMDFSKQLMDERGYGEYIPLDMRDLPMFWLAYLSDPSDSGRIHSNVRQRWLNGEPAVVEAMKSFAELTDQSRAAFQCKDWARLAQLMDENFELRRSVYTDDCLGPGNLKMVQLARQFGSAVKLPGSGGAVVGLCMDQERLMEMKRAFQEAGCVFCLIVPYDPSVQGQN
notes: C-terminal glucuronokinase (GHMP kinase) domain only, 357 residues, 40 kDa, of the 619-residue DrGKUP (N-terminal ~260-residue pyrophosphorylase domain removed); StrepII-tag; made in Nicotiana benthamiana leaves
Km [1]: 59.3 ± 9.1 µM
kcat [1]: 1.3 s⁻¹
